Laboratory results taken from patent US20220289794A1, “SYNTHETIC ANTIMICROBIAL PEPTIDES” (priority 2019, published 2022).

Each substance was assayed on P. aeruginosa (ATCC BAA-1744) (assay: Broad-spectrum activity against Gram-Negative bacteria (MIC)). Conditions: Table 16, Gram-negative panel.
Format: cell-based

| Substance | MIC P. aeruginosa (ATCC BAA-1744) [µg/mL] |
| --- | --- |
| c[Arg-arg-Arg-Arg-Dip-Trp-Dip] [IFX-093] | 25 |
| c[Arg-arg-Arg-arg-dip-Trp-dip] [IFX-097] | 50 |
| c[arg-Arg-Arg-Arg-Dip-Dip-Dip] [IFX-066] | 12.5 |
| c[arg-Arg-Arg-Arg-Dip-Trp-Dip] [IFX-094] | 25 |

Each substance was assayed on A. baumannii (ATCC BAA-1605) in the same assay as above. Conditions: Table 16, Gram-negative panel.
Format: cell-based

| Substance | MIC A. baumannii (ATCC BAA-1605) [µg/mL] |
| --- | --- |
| c[Arg-arg-Arg-Arg-Dip-Trp-Dip] [IFX-093] | 12.5 |
| c[Arg-arg-Arg-arg-dip-Trp-dip] [IFX-097] | 12.5 |
| c[arg-Arg-Arg-Arg-Dip-Dip-Dip] [IFX-066] | 6.2 |
| c[arg-Arg-Arg-Arg-Dip-Trp-Dip] [IFX-094] | 12.5 |

These substances were tested on Escherichia coli (ATCC 25922) (assay: not given). Conditions: E. coli ATCC 25922.

| Substance | MIC E. coli ATCC 25922 [µg/mL] |
| --- | --- |
| c[Arg-arg-Arg-Arg-Dip-Trp-Dip] [IFX-093] | 12.5 |
| c[Arg-arg-Arg-arg-dip-Trp-dip] [IFX-097] | 12.5 |
| c[arg-Arg-Arg-Arg-Dip-Dip-Dip] [IFX-066] | 12.5 |
| c[arg-Arg-Arg-Arg-Dip-Trp-Dip] [IFX-094] | 12.5 |

What follows are substances tested on S. aureus ATCC 29213 (assay: not given). Conditions: S. aureus ATCC 29213.

| Substance | MIC S. aureus ATCC 29213 [µg/mL] |
| --- | --- |
| c[Arg-arg-Arg-Arg-Dip-Trp-Dip] [IFX-093] | 3.1 |
| c[Arg-arg-Arg-arg-dip-Trp-dip] [IFX-097] | 3.1 |
| c[arg-Arg-Arg-Arg-Dip-Dip-Dip] [IFX-066] | 3.1 |
| c[arg-Arg-Arg-Arg-Dip-Trp-Dip] [IFX-094] | 3.1 |

The substances below were run on B. cereus (ATCC-13061) (assay: Broad-spectrum activity against Gram-Positive bacteria (MIC)). Conditions: not given.
Format: cell-based
Parameters: unit not given here

| Substance | Broad-spectrum activity B. cereus (ATCC-13061) |
| --- | --- |
| c[Arg-arg-Arg-Arg-Dip-Trp-Dip] [IFX-093] | 6.2 |
| c[Arg-arg-Arg-arg-dip-Trp-dip] [IFX-097] | 6.2 |
| c[arg-Arg-Arg-Arg-Dip-Dip-Dip] [IFX-066] | 6.2 |
| c[arg-Arg-Arg-Arg-Dip-Trp-Dip] [IFX-094] | 6.2 |

The substances below were run on Klebsiella pneumoniae (ATCC BAA-1705) (assay: not given). Conditions: Table 16, Gram-negative panel.

| Substance | MIC K. pneumonia (ATCC BAA-1705) [µg/mL] |
| --- | --- |
| c[Arg-arg-Arg-Arg-Dip-Trp-Dip] [IFX-093] | 12.5 |
| c[Arg-arg-Arg-arg-dip-Trp-dip] [IFX-097] | 25 |
| c[arg-Arg-Arg-Arg-Dip-Dip-Dip] [IFX-066] | 12.5 |
| c[arg-Arg-Arg-Arg-Dip-Trp-Dip] [IFX-094] | 12.5 |

The substances below were run on E. coli (ATCC BAA-2452) (assay: Broad-spectrum activity against Gram-Negative bacteria (MIC)). Conditions: Table 16, Gram-negative panel.
Format: cell-based

| Substance | MIC E. coli (ATCC BAA-2452) [µg/mL] |
| --- | --- |
| c[Arg-arg-Arg-Arg-Dip-Trp-Dip] [IFX-093] | 6.2 |
| c[Arg-arg-Arg-arg-dip-Trp-dip] [IFX-097] | 25 |
| c[arg-Arg-Arg-Arg-Dip-Dip-Dip] [IFX-066] | 12.5 |
| c[arg-Arg-Arg-Arg-Dip-Trp-Dip] [IFX-094] | 12.5 |

The substances below were run on Streptococcus pneumoniae ATCC 51938 (assay: not given). Conditions: S. pneumoniae ATCC 51938.

| Substance | Broad-spectrum activity S. pneumoniae (ATCC 51938) |
| --- | --- |
| c[Arg-arg-Arg-Arg-Dip-Trp-Dip] [IFX-093] | 25 |
| c[Arg-arg-Arg-arg-dip-Trp-dip] [IFX-097] | 25 |
| c[arg-Arg-Arg-Arg-Dip-Dip-Dip] [IFX-066] | 12.5 |
| c[arg-Arg-Arg-Arg-Dip-Trp-Dip] [IFX-094] | 25 |

These substances were tested on Pseudomonas aeruginosa (ATCC 27883) (assay: not given). Conditions: P. aeruginosa ATCC 27883.

| Substance | MIC P. aeruginosa ATCC 27883 [µg/mL] |
| --- | --- |
| c[Arg-arg-Arg-Arg-Dip-Trp-Dip] [IFX-093] | 12.5 |
| c[Arg-arg-Arg-arg-dip-Trp-dip] [IFX-097] | 12.5 |
| c[arg-Arg-Arg-Arg-Dip-Dip-Dip] [IFX-066] | 12.5 |
| c[arg-Arg-Arg-Arg-Dip-Trp-Dip] [IFX-094] | 6.2 |

Each substance was assayed on Enterococcus faecalis ATCC 51575 (assay: not given). Conditions: E. faecalis ATCC 51575.

| Substance | Broad-spectrum activity E. faecalis (ATCC 51575) |
| --- | --- |
| c[Arg-arg-Arg-Arg-Dip-Trp-Dip] [IFX-093] | 12.5 |
| c[Arg-arg-Arg-arg-dip-Trp-dip] [IFX-097] | 12.5 |
| c[arg-Arg-Arg-Arg-Dip-Dip-Dip] [IFX-066] | 12.5 |
| c[arg-Arg-Arg-Arg-Dip-Trp-Dip] [IFX-094] | 12.5 |

The substances below were run on Enterococcus faecium ATCC 700221 (assay: not given). Conditions: E. faecium ATCC 700221.

| Substance | Broad-spectrum activity E. faecium (ATCC 700221) |
| --- | --- |
| c[Arg-arg-Arg-Arg-Dip-Trp-Dip] [IFX-093] | 6.2 |
| c[Arg-arg-Arg-arg-dip-Trp-dip] [IFX-097] | 6.2 |
| c[arg-Arg-Arg-Arg-Dip-Dip-Dip] [IFX-066] | 3.1 |
| c[arg-Arg-Arg-Arg-Dip-Trp-Dip] [IFX-094] | 12.5 |

The substances below were run on B. subtilis (ATCC-6633) (assay: Broad-spectrum activity against Gram-Positive bacteria (MIC)). Conditions: not given.
Format: cell-based
Parameters: unit not given here

| Substance | Broad-spectrum activity B. subtilis (ATCC-6633) |
| --- | --- |
| c[Arg-arg-Arg-Arg-Dip-Trp-Dip] [IFX-093] | 1.5 |
| c[Arg-arg-Arg-arg-dip-Trp-dip] [IFX-097] | 1.5 |
| c[arg-Arg-Arg-Arg-Dip-Dip-Dip] [IFX-066] | 1.5 |
| c[arg-Arg-Arg-Arg-Dip-Trp-Dip] [IFX-094] | 3.1 |

The substances below were run on Enterococcus faecalis ATCC 29212 (assay: not given). Conditions: E. faecalis ATCC 29212.

| Substance | Broad-spectrum activity E. faecalis (ATCC 29212) |
| --- | --- |
| c[Arg-arg-Arg-Arg-Dip-Trp-Dip] [IFX-093] | 12.5 |
| c[Arg-arg-Arg-arg-dip-Trp-dip] [IFX-097] | 6.2 |
| c[arg-Arg-Arg-Arg-Dip-Dip-Dip] [IFX-066] | 6.2 |
| c[arg-Arg-Arg-Arg-Dip-Trp-Dip] [IFX-094] | 12.5 |

Each substance was assayed on Methicillin-resistant Staphylococcus aureus MRSA (ATCC BAA-1556) (assay: not given). Conditions: MRSA ATCC BAA-1556.

| Substance | MIC MRSA ATCC BAA-1556 [µg/mL] |
| --- | --- |
| c[Arg-arg-Arg-Arg-Dip-Trp-Dip] [IFX-093] | 3.1 |
| c[Arg-arg-Arg-arg-dip-Trp-dip] [IFX-097] | 3.1 |
| c[arg-Arg-Arg-Arg-Dip-Dip-Dip] [IFX-066] | 1.5 |
| c[arg-Arg-Arg-Arg-Dip-Trp-Dip] [IFX-094] | 3.1 |

What follows are substances tested on Klebsiella pneumoniae ATCC 13883 (assay: not given). Conditions: Table 16, Gram-negative panel.

| Substance | MIC K. pneumonia (ATCC 13883) [µg/mL] |
| --- | --- |
| c[Arg-arg-Arg-Arg-Dip-Trp-Dip] [IFX-093] | 50 |
| c[Arg-arg-Arg-arg-dip-Trp-dip] [IFX-097] | > 50 |
| c[arg-Arg-Arg-Arg-Dip-Dip-Dip] [IFX-066] | 50 |
| c[arg-Arg-Arg-Arg-Dip-Trp-Dip] [IFX-094] | 50 |

What follows are substances tested on Streptococcus pneumoniae ATCC 49619 (assay: not given). Conditions: S. pneumoniae ATCC 49619.

| Substance | Broad-spectrum activity S. pneumoniae (ATCC 49619) |
| --- | --- |
| c[Arg-arg-Arg-Arg-Dip-Trp-Dip] [IFX-093] | 50 |
| c[Arg-arg-Arg-arg-dip-Trp-dip] [IFX-097] | 50 |
| c[arg-Arg-Arg-Arg-Dip-Dip-Dip] [IFX-066] | 25 |
| c[arg-Arg-Arg-Arg-Dip-Trp-Dip] [IFX-094] | 25 |

Each substance was assayed on Enterococcus faecium ATCC 27270 (assay: not given). Conditions: E. faecium ATCC 27270.

| Substance | Broad-spectrum activity E. faecium (ATCC 27270) |
| --- | --- |
| c[Arg-arg-Arg-Arg-Dip-Trp-Dip] [IFX-093] | 6.2 |
| c[Arg-arg-Arg-arg-dip-Trp-dip] [IFX-097] | 3.1 |
| c[arg-Arg-Arg-Arg-Dip-Dip-Dip] [IFX-066] | 3.1 |
| c[arg-Arg-Arg-Arg-Dip-Trp-Dip] [IFX-094] | 6.2 |

These substances were tested on P. aeruginosa (ATCC 10145) (assay: Broad-spectrum activity against Gram-Negative bacteria (MIC)). Conditions: Table 16, Gram-negative panel.
Format: cell-based

| Substance | MIC P. aeruginosa (ATCC 10145) [µg/mL] |
| --- | --- |
| c[Arg-arg-Arg-Arg-Dip-Trp-Dip] [IFX-093] | 25 |
| c[Arg-arg-Arg-arg-dip-Trp-dip] [IFX-097] | 50 |
| c[arg-Arg-Arg-Arg-Dip-Dip-Dip] [IFX-066] | 25 |
| c[arg-Arg-Arg-Arg-Dip-Trp-Dip] [IFX-094] | 50 |
